In article PMC6522510 (Nature Communications, 2019):
pEC50: −log10 of the molar value. Where two headings read alike, the source gives them in different places.

Assays:
[1] = system: CMS; assay: cells; set-up: species or system AML cell lines (8); Secondary HTS, 10-point dose-response in triplicate, Cell Titer Glo viability, four-parameter fit EC50; details: 72 h, read-out: CMS
[2] = system: ML2; assay: Secondary dose-response HTS, Cell Titer Glo; assay type: cell-based, human; details: secondary high-throughput screen, ML-2, read-out: average effective concentration, ML-2
[3] = system: MV4-11; assay: cells; set-up: species or system AML cell lines (8); Secondary HTS, 10-point dose-response in triplicate, Cell Titer Glo viability, four-parameter fit EC50; details: Homo sapiens, MV4-11, 72 h, read-out: MV4-11
[4] = system: M07e; assay: Secondary dose-response HTS, Cell Titer Glo; assay type: cell-based, human; details: secondary high-throughput screen; for pEC50: read-out: average effective concentration, M07e
[5] = system: U937; assay: Secondary dose-response HTS, Cell Titer Glo; assay type: cell-based, human; details: secondary high-throughput screen, U937, read-out: average effective concentration, U937
[6] = system: CHRF288-11; assay: Secondary dose-response HTS, Cell Titer Glo; assay type: cell-based, human; details: secondary high-throughput screen, CHRF288-11; for pEC50: Homo sapiens, HTS, read-out: average effective concentration, CHRF288-11
[7] = system: MOLM-13; assay: cells; set-up: species or system AML cell lines (8); Secondary HTS, 10-point dose-response in triplicate, Cell Titer Glo viability, four-parameter fit EC50; details: Homo sapiens, MOLM-13, 72 h, read-out: MOLM-13
[8] = system: CMK; assay: Secondary dose-response HTS, Cell Titer Glo; assay type: cell-based, human; details: CMK; for pEC50: Homo sapiens, read-out: average effective concentration, CMK
[9] = system: MOLM-13; assay: Secondary dose-response HTS, Cell Titer Glo; assay type: cell-based, human; details: secondary high-throughput screen, MOLM-13; for pEC50: read-out: average effective concentration, MOLM-13
[10] = system: MV4-11; assay: Secondary dose-response HTS, Cell Titer Glo; assay type: cell-based, human; details: secondary high-throughput screen, MV4-11; for pEC50: Homo sapiens, read-out: average effective concentration, MV4-11
[11] = system: U937; assay: cells; set-up: species or system AML cell lines (8); Secondary HTS, 10-point dose-response in triplicate, Cell Titer Glo viability, four-parameter fit EC50; details: Homo sapiens, U-937, 72 h, read-out: U937
[12] = system: M07e; assay: cells; set-up: species or system AML cell lines (8); Secondary HTS, 10-point dose-response in triplicate, Cell Titer Glo viability, four-parameter fit EC50; details: M-07e, 72 h, read-out: M07e
[13] = system: CMS; assay: Secondary dose-response HTS, Cell Titer Glo; assay type: cell-based, human; details: Homo sapiens, HTS; secondary high-throughput screen; CMS; read-out: average effective concentration, CMS
[14] = system: CMK; assay: cells; set-up: species or system AML cell lines (8); Secondary HTS, 10-point dose-response in triplicate, Cell Titer Glo viability, four-parameter fit EC50; details: Homo sapiens, CMK, 72 h, read-out: CMK
[15] = secondary high-throughput screen

| pEC50 ([5]; Homo sapiens, U-937) | pEC50 ([9]; Homo sapiens) | pEC50 [10] | Structure (SMILES) | pEC50 [1] | pEC50 ([2]; Homo sapiens) | pEC50 ([4]; Homo sapiens, M-07e, M07e) | pEC50 [6] | pEC50 [8, 15] | average effective concentration, MV4-11 [10] | other results |
| --- | --- | --- | --- | --- | --- | --- | --- | --- | --- | --- |
| 5.42 | 5.57 | 5.42 | COc1cc(Nc2c(C#N)cnc3cc(OCCCN4CCN(C)CC4)c(OC)cc23)c(Cl)cc1Cl [BOSUTINIB] | < 5.00 | 5.00 | 5.32 | 5.42 |  |  | pEC50 [8]: 5.96 |
| 9.00 | 9.00 | 9.00 | O=C(/C=C/c1cccnc1)NCCCCC1CCN(C(=O)c2ccccc2)CC1 [DAPORINAD] | < 5.00 | 9.00 | 9.00 | 7.92 | 9.00 |  |  |
| 5.00 | 5.60 | 5.51 | CCc1c2c(nc3ccc(OC(=O)N4CCC(N5CCCCC5)CC4)cc13)-c1cc3c(c(=O)n1C2)COC(=O)[C@]3(O)CC [IRINOTECAN] | < 5.00 | 5.40 | < 5.00 | 5.35 |  |  | pEC50 [14]: < 5.00 |

More lines, now with the values behind:

| Structure (SMILES) | pEC50 ([5]; Homo sapiens, U-937) | pEC50 ([9]; Homo sapiens) | pEC50 [10] | pEC50 [1] | pEC50 ([2]; Homo sapiens) | pEC50 ([4]; Homo sapiens, M-07e, M07e) | pEC50 [6] | pEC50 [8, 15] | average effective concentration, MV4-11 [10] | other results |
| --- | --- | --- | --- | --- | --- | --- | --- | --- | --- | --- |
| Cn1ncnc1[C@H]1c2n[nH]c(=O)c3cc(F)cc(c23)N[C@@H]1c1ccc(F)cc1 [BMN 673] | 5.44 |  |  | < 5.00 | 7.10 | 5.04 | 7.13 | 6.68 |  | pEC50 [3]: < 5.00; pEC50 [7]: < 5.00 |
| O=C(/C=C/c1cccc(C(=O)NO)c1)NO [CBHA] |  |  |  |  |  |  |  |  | Inactive | pEC50 [2]: 5.28; pEC50 ([4]; M07e): 5.66; pEC50 [5]: 5.89; pEC50 [9]: 5.62; average effective concentration, CMK [8, 15]: Inactive |
| Cn1c(Nc2ccc(C(F)(F)F)cc2)nc2cc(Oc3ccnc(-c4ncc(C(F)(F)F)[nH]4)c3)ccc21 [CHIR-265] |  |  |  |  | < 5.00 |  | 5.17 |  |  | pEC50 [11]: < 5.00; pEC50 [12]: < 5.00; pEC50 [3]: < 5.00; pEC50 [13]: 5.00; pEC50 [7]: < 5.00; pEC50 [14]: < 5.00 |
| Nc1ncn([C@@H]2O[C@H](CO)[C@@H](O)[C@H]2O)c(=O)n1 [Compound 5-AZACYTIDINE] |  |  |  |  |  |  |  |  | Inactive | average effective concentration, M07e ([4]; M07e): Inactive; average effective concentration, CHRF288-11 [6]: Inactive |
| CC(C)c1cccc(C(C)C)c1N1C(=O)c2ccc(O)cc2C1=O [Compound 5HPP-33] |  |  |  |  |  |  |  |  | Inactive | average effective concentration, M07e ([4]; M07e): Inactive; average effective concentration, MOLM-13 [9]: Inactive; average effective concentration, CHRF288-11 [6]: Inactive; average effective concentration, CMK [8, 15]: Inactive |
| CN[C@@H]1C[C@H]2O[C@@](C)([C@@H]1OC)n1c3ccccc3c3c4c(c5c6ccccc6n2c5c31)C(=O)N[C@H]4O [Compound 7-HYDROXYSTAUROSPORINE] |  |  |  |  |  |  |  |  |  | average effective concentration, M07e ([4]; […]): Inactive |
| COc1cccc2c1C(=O)c1c(O)c3c(c(O)c1C2=O)C[C@@](O)(C(C)=O)C[C@@H]3O[C@H]1C[C@H](N)[C@H](O)[C@H](C)O1 [DAUNORUBICIN] | 8.37 | 7.37 | 7.64 |  | 9.00 |  | 9.00 | 7.46 |  | pEC50 ([4]; Homo sapiens, M-07e, […]): 8.05 |
| CC(C)(C#N)c1ccc(N2C(=O)OCc3cnc4ccc(-c5cnc6ccccc6c5)cc4c32)cc1 [ETP-46464] |  |  |  |  |  |  |  |  | Inactive | average effective concentration, M07e ([4]; […]): Inactive; average effective concentration, MOLM-13 [9]: Inactive |
| N#CN=C(NCCCCCCOc1ccc(Cl)cc1)Nc1ccncc1 [GMX-1778] | 8.30 | 8.44 | 8.96 | < 5.00 | 9.46 |  | 9.32 | 8.25 |  | pEC50 ([4]; Homo sapiens, M-07e, […]): 9.28 |
